From PubChem BioAssay AID624254 (Broad Institute, 2012)

Molecular target: V. cholerae BH1651 luxOD47E, luciferase light induction, 6 h
Assay: Quorum luxo inducers, light production, v cholerae bh1651 luxod47e, confirmatory dose response (AID 624254)

SMILES	AC50
C[C@H]1CN([C@@H](C)CO)C(=O)c2cccc(NC(=O)Nc3ccc4c(c3)OCO4)c2O[C@@H]1CN(C)S(=O)(=O)c1ccccc1	2250 nM
O=[N+]([O-])c1ccc(N2CCOCC2)c2c1no[n+]2[O-]	1740 nM
